ChEMBL document CHEMBL1156829 (Proc Natl Acad Sci U S A, 2008)

Experiments:
[1] = NOVARTIS: Cytotoxicity against human hepatocellular carcinoma cell line (Huh7); type: toxicity, cell-based, Huh-7; conditions: Huh7 cells (hepatocellular carcinoma cell line)
Plasmodium falciparum [2] = experiment: NOVARTIS: Inhibition of Plasmodium falciparum W2 (drug-resistant) proliferation in erythrocyte-based infection assay; type: functional, organism-based; conditions: Plasmodium falciparum, W2; read-out: EC50
Plasmodium falciparum [3] = experiment: NOVARTIS: Inhibition of Plasmodium falciparum 3D7 (drug-susceptible) proliferation in erythrocyte-based infection assay; type: functional, organism-based; conditions: Plasmodium falciparum, 3D7

| Structure (SMILES) | CC50 [1] [µM] | EC50 (Plasmodium falciparum [2]) [nM] | EC50 (Plasmodium falciparum [3]) [nM] |
| --- | --- | --- | --- |
| COCCOC(=O)C1=C(C)NC2=C(C(=O)CC(c3ccc(OC)c(OC)c3)C2)C1c1ccccc1C (configuration not stated) | > 100 | 32.3 | 110 |
| COc1ccc(CCN2C(=O)CC(C(=O)Nc3cccc(Cl)c3)SC2=Nc2ccccc2)cc1OC (configuration not stated) | > 100 | 2840 | 3820 |
| CC(C)CNc1nc(NCCCN(C)C)ncc1C(=O)NCc1ccccc1 | > 10 | > 1290 | 316 |
| Cc1cc(C)cc(NC(=S)NCCO)c1 | > 100 | 513 | 3860 |
| CNC(=O)NNC(=O)c1cccnc1 | > 100 | > 7470 | > 12500 |
| O=C(NC1CC1)C1CCN(c2cccc3c2C(=O)N(Cc2cccc(C(F)(F)F)c2)C3=O)CC1 | > 100 | 1110 | 2160 |
| N=C(N)NN=Cc1cccc(OCc2ccc(Cl)c(Cl)c2)c1 | > 10 | 1690 | 1990 |
| CC(C)(C)c1ccc(O)c(CNC2CCCCC2)c1 | 60.1 | 67.8 | 250 |
| CC(=O)C1=C(O)C(=O)N(c2ccc(Br)cn2)C1c1ccccc1[N+](=O)[O-] (configuration not stated) | > 100 | > 12500 | > 9610 |
| COc1cc(NC(C)CCCN(Cc2ccccc2OC)C(=O)c2cccc(Br)c2)c2ncccc2c1 (configuration not stated) | > 6.43 | 563 | > 948 |
| NC(=O)Oc1ccc(Cc2ccccc2)cc1 | > 10 | 738 | 843 |
| Brc1ccc(/C=C/c2cc[n+](Cc3ccccc3)cc2)cc1 | > 10 | 66.6 | 112 |
| COc1ccccc1CN1CCc2nc(-c3cnccn3)sc2C1 | 23 | 4440 | 9230 |
| Cc1cc2c(cc1S(=O)(=O)N1CCCCC1C)OCC(=O)N2 (configuration not stated) | > 100 | 505 | > 12500 |
| COc1cccc(-c2ccc(O)c(CN3CCCC(C)C3)c2)n1 (configuration not stated) | > 10 | 67.9 | 543 |
| Cn1nc(C(F)(F)F)c(-c2ccc(Br)cc2)c1NC(=O)Nc1ccc(F)cc1F | 42.8 | 206 | 212 |
| COc1cccc(C(=O)NCc2nnc(S)n2-c2ccc(Cl)c(Cl)c2)c1 | > 100 | 273 | 275 |

| Structure (SMILES) | CC50 [1] [µM] | EC50 (Plasmodium falciparum [2]) [nM] | EC50 (Plasmodium falciparum [3]) [nM] |
| --- | --- | --- | --- |
| Clc1ncnc2ncn(Cc3ccccc3)c12 | 58.1 | 1090 | 1650 |
| COc1ccc(/C=C/c2ccc3ccccc3[n+]2C)cc1OC | > 10 | 867 | 872 |
| CC1CN(C(=O)C(Cl)(Cl)Cl)C(C)CN1C(=O)C(Cl)(Cl)Cl (configuration not stated) | > 100 | 302 | 2050 |
| O=C(/C=C/c1c[nH]cn1)N1CCC(n2c(CC3CCCC3)nc3cccnc32)CC1 | > 10 | 28.7 | > 1670 |
| Cc1c(NC(=O)C2c3ccccc3C(=O)N3CCc4ccccc4C23)cccc1[N+](=O)[O-] (configuration not stated) | > 100 | 1520 | 4070 |
| CCCn1c(SCCNC(=O)/C=C/c2ccccc2)nc(-c2ccccc2)c1-c1ccccc1 | 9.38 | 29.7 | 557 |
| CCCC(C(=O)OCC)C(C)=NNc1ccccc1[N+](=O)[O-] (configuration not stated) | > 100 | 1670 | 1270 |
| CC(=O)N1CCN(c2ccc(NC(=S)NC(=O)c3ccc(C)cc3)cc2)CC1 | > 95.7 | 3790 | > 12500 |
| COC(=O)C1=C(C)NC(=Cc2cc(C)n(-c3ccccc3F)c2C)C1=O | > 100 | 38.3 | 20 |
| COc1ccc(C(=O)N(CCCC(C)Nc2cc(OC)cc3cccnc23)Cc2ccccc2OC)cc1 (configuration not stated) | 5.18 | 270 | 713 |
| CCC(=O)OC(C(C)C(=O)O)C(C)C1OC2(CCC(C)(C3CCC(C)(C4OC(C5OC(O)(CO)C(C)CC5C)CC4C)O3)O2)CC(O)C1C (configuration not stated) | > 6.25 | 387 | 379 |
| CCC(CC)=NNC(=O)C(=O)NC1CCCCC1 | > 10 | 535 | 231 |
| COc1ccc(OC)c(-c2ccc(O)c(CNCC(C)c3ccccc3)c2)c1 (configuration not stated) | > 10 | 672 | 960 |
| COc1c(N2CCN(Cc3c(C)cc(C)cc3C)CC2)c2nc3oc2c2c(OC(=O)C(C)(C)C)c(C)c4c(c12)[C@@H](O)[C@@](C)(OC=C[C@H](OC)[C@@H](C)[C@@H](OC(C)=O)C(C)[C@H](O)[C@H](C)[C@@H](O)C(C)C=CC=C3C)O4 (some centres not stated) | > 10 | 554 | 221 |
| CCN1CCCC(Nc2ccnc3cc4ccccc4cc23)C1 (configuration not stated) | 3.75 | 4.81 | 8.24 |
| COc1cccc(N2CCN(CCNCCc3ccccc3)[C@@H](Cc3ccc(O)cc3)C2)c1 | > 10 | 397 | 564 |
| O=C(c1cccs1)N1CCN(c2ccc([N+](=O)[O-])c(NC3CC3)c2)CC1 | > 100 | 1370 | 2090 |
